Data set [1] concerns the target Alpha-2A adrenergic receptor (Homo sapiens) (UniProt P08913). The experiment in a line: Inhibition of ADRA2A (unknown origin).
In the next data set the test system is Mus musculus. The experiment in a line: Effect on glucose infusion rate in DIO C57/B6 mouse during hyperinsulinemic-euglycemic clamp at 44 mg/kg/hr for 90 mins. The format is functional, organism-based.
Data set [2] concerns the target Muscarinic acetylcholine receptor M1 (Homo sapiens) (UniProt P11229). The experiment in a line: Inhibition of M1 (unknown origin).
For data set [3], the target named is Sodium channel protein type 5 subunit alpha (Homo sapiens, UniProt Q14524). In words: Inhibition of NaV1.5 (unknown origin).
The target in data set [4] is Muscarinic acetylcholine receptor M3 (Homo sapiens) (UniProt P20309). In words: Inhibition of M3 (unknown origin).

Calls of active or inactive are those of the source. No cut-off for these calls is given here.

Sodium channel protein type 5 subunit alpha, sequence (Q14524 whole entry): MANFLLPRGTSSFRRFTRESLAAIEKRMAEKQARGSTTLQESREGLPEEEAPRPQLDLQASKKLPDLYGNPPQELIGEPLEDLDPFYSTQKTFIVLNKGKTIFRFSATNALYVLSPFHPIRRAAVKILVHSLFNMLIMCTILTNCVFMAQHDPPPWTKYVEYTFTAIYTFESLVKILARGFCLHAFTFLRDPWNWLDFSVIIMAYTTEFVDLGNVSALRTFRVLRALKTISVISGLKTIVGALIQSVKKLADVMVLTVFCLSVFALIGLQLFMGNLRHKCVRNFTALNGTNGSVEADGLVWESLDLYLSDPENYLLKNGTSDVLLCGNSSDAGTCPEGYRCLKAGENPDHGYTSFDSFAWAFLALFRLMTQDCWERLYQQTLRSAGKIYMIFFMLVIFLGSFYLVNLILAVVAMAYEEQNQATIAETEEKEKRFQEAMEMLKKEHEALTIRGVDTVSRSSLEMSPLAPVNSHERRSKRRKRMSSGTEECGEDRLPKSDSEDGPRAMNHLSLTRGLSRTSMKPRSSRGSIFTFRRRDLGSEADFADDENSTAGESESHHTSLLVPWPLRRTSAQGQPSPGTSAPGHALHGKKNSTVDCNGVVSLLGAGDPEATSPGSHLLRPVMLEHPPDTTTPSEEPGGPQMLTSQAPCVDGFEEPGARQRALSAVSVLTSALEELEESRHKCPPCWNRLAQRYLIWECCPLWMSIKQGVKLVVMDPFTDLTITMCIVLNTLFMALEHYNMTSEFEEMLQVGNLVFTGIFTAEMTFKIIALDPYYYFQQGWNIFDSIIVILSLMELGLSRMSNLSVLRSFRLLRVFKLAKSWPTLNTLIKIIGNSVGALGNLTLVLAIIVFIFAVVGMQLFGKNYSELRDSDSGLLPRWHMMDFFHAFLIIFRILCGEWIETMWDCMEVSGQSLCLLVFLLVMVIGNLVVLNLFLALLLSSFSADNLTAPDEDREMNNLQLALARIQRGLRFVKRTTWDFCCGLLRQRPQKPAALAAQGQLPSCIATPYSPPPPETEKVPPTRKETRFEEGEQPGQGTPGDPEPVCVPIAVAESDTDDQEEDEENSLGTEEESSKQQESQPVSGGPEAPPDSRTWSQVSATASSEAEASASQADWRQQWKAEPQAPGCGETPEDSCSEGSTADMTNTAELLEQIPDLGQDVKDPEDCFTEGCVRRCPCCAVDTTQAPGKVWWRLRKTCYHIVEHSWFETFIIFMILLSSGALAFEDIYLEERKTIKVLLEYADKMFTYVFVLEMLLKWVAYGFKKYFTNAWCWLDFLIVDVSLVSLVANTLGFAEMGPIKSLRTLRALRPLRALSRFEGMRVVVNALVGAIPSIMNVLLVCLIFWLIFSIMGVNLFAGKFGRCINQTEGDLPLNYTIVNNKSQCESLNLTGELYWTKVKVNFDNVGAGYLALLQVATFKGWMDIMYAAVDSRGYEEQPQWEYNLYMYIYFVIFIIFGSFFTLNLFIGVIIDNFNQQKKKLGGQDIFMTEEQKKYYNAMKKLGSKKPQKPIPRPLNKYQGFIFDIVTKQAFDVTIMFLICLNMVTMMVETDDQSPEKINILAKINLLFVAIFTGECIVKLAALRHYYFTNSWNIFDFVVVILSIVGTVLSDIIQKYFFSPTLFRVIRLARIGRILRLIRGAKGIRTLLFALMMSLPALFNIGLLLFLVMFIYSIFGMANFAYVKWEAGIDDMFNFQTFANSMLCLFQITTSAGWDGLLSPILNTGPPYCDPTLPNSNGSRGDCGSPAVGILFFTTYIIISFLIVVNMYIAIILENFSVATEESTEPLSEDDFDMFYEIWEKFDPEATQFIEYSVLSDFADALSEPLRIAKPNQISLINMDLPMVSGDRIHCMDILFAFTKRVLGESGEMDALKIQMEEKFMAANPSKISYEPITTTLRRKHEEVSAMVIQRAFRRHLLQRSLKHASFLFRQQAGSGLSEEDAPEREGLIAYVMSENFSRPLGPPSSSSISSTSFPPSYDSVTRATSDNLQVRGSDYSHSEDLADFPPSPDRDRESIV
Muscarinic acetylcholine receptor M3 (Homo sapiens), sequence (P20309 whole entry, looked up): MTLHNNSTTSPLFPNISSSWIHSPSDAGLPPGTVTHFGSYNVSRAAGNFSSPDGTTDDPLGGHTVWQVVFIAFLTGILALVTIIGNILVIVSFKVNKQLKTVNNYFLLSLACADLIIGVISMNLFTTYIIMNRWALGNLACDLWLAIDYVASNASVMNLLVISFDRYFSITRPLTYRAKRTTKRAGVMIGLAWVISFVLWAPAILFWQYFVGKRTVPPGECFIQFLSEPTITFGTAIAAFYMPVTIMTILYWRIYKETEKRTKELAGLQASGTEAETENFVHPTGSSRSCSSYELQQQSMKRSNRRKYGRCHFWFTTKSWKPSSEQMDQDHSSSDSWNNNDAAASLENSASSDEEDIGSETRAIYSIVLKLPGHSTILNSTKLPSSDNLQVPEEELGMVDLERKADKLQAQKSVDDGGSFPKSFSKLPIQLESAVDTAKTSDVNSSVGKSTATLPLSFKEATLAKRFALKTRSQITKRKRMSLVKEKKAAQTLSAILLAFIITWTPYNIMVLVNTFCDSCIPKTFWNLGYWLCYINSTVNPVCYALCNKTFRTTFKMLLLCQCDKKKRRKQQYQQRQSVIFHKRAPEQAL
Muscarinic acetylcholine receptor M1 (Homo sapiens), sequence (P11229 whole entry): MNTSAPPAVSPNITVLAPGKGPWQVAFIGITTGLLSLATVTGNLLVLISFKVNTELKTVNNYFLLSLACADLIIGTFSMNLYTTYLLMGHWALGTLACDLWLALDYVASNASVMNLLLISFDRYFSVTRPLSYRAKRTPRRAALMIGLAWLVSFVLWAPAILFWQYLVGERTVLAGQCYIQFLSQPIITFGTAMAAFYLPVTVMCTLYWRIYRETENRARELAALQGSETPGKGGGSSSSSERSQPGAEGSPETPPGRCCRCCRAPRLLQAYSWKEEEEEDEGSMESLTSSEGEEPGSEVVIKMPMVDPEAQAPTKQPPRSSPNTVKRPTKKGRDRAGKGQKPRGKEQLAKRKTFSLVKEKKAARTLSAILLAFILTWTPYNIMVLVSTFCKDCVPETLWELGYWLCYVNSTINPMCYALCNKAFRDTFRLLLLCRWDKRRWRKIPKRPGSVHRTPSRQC
Alpha-2A adrenergic receptor (Homo sapiens), sequence (P08913 whole entry, the tested form may be a part): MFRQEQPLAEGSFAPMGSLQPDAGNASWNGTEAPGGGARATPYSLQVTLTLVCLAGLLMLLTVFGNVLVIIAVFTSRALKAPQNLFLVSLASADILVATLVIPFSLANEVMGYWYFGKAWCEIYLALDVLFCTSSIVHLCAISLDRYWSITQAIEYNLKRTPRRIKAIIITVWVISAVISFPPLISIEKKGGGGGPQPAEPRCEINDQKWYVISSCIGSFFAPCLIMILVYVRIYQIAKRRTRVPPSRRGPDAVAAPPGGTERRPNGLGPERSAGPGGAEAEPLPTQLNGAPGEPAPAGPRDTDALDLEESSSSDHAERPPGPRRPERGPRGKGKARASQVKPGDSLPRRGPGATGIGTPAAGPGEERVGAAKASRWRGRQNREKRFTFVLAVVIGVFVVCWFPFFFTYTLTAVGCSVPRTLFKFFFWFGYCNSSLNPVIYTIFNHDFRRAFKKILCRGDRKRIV

As to `COc1ncc(C)cc1CC[C@@](O)(CC(=O)O)C(=O)O`, the inhibition result in data set [1], in data set [2] and in data set [4] was “inactive” in each case. In the data set on Mus musculus, the result was inactive. In data set [3], the “inhibition (INH)” value is given as “Not Active”.

These data come from ChEMBL document CHEMBL3769388, “Optimization of a Dicarboxylic Series for in Vivo Inhibition of Citrate Transport by the Solute Carrier 13 (SLC13) Family” (J Med Chem, 2016).
